Patent publication US7083982B2, “Helium-neon excitable reticulocyte dyes derivable from halolepidines” (Abbott Laboratories, priority 1996, dated 2006)

Columns and labels:
[1] = Absorption maximum of the dye; type: physicochemical; details: for absorption maximum in methanol: in methanol solution
Procedure: The following table sets forth the absorption maximum in nanometers for several dyes suitable for use in this invention.
To the activated 3-ethyl-2-methylbenzothiazolium derivative obtained above (4.5 mg) was added the 7-chloro-1-methyllepidinium salt obtained above (3.8 mg) in chloroform (250 μL) to form a mixture. Then triethylamine (50 μL) was added to the mixture. The resulting mixture was stirred at reflux for 30 minutes, during which time a dark blue solution was obtained. Diethyl ether was added to the solution and the resultant suspension was centrifuged. The supernatant was discarded and the precipitate resuspended in diethyl ether and centrifuged (2 times). The dark powder absorbed maximally at 638 nm in methanol solution.

[2] = Fluorescence of dye only in CD4000 Retic Buffer, flow cytometer with helium-neon laser; type: physicochemical
Procedure: (§1) Fluorescence was determined by dissolving the dye in a buffer (“CD4000 Retic Buffer”) at neutral pH and at a final concentration of 0.5 μg/ml of test solution. The “CD4000 Retic Buffer” contained the following ingredients in the amounts indicated: The tests were run in a flow cytometer with a helium-neon laser light source. The helium-neon laser provided light at a wavelength of 630 nm. The optical system was a conventional optical system.

DNA = test: Fluorescence of dye with DNA in CD4000 Retic Buffer, flow cytometer with helium-neon laser
Procedure: as §1

RNA = test: Fluorescence of dye with RNA in CD4000 Retic Buffer, flow cytometer with helium-neon laser
Procedure: as §1

[3] = fluorescence relative to dye only intensity 1.0

SMILES	Absorption maximum (nm) [1] [nm]	absorption maximum in methanol [1] [nm]	also measured
CN1C=C/C(=C\C=C\c2sc3ccccc3[n+]2C)c2ccc(F)cc21 [Dye 2]	628	–	–
CN1C=C/C(=C\C=C\C2=[N+](C)c3ccc4ccccc4c3C2(C)C)c2ccc(Cl)cc21 [Dye 6]	–	623	–
CN1C=C/C(=C\C=C\c2oc3ccc4ccccc4c3[n+]2C)c2ccc(Cl)cc21 [Dye 9]	624	624	–
CN1C=C/C(=C\C=C\c2sc3ccccc3[n+]2C)c2ccc(Cl)cc21 [Dye 8]	–	638	–
CC[n+]1c(/C=C/C=C2\C=CN(C)c3cc(Cl)ccc32)sc2ccccc21 [Dye 7]	638	638	Emission wavelength - dye only (nm) ([2]; 0.5 μg/ml, neutral pH, 630 nm laser): 655.6 nm; Bandwidth ([2]; emission): 45; Bandwidth with DNA (DNA; emission, with DNA): 35; Enhancement with DNA (DNA; [3]): 50.4; Emission wavelength with DNA (nm) (DNA; with DNA, 0.5 μg/ml, neutral pH, 630 nm laser): 661.8 nm; Bandwidth with RNA (RNA; emission, with RNA): 36; Enhancement with RNA (RNA; [3]): 39.1; Emission wavelength with RNA (nm) (RNA; with RNA, 0.5 μg/ml, neutral pH, 630 nm laser): 671.2 nm
CN1C=C/C(=C\C=C\c2sc3ccccc3[n+]2C)c2ccc(Br)cc21 [Dye 5]	638	–	–
